# Measured values taken from patent US20080286147A1, “Apparatus and Method for Decontamination” (GOVERNMENT OF THE U.S.A. OF AMERICA AS REPRESENTED, priority 2004, published 2008).
# Several values for one entry are separate records, joined by “and”; a condition that tells them apart may be missing. Equal entries are not always repeated.
# Assays:
# Type in all cases: cell-based
# [1] = test system: B. subtilis var. niger spores; assay: Decontamination of a BSC containing spore test strips using 4000 ppm ClO2 for 60 min; settings: 75% relative humidity
# Text: (§1) Test strips described in Example 1 were placed inside a BSC (FIG. 8) in various positions. Referring to FIGS. 2, 3 and 8, the opening in the front of the BSC 500 was sealed using a polyethylene sheet 502 or plastic sheeting and duct tape. An opening 504 was made in the plastic or polyethylene 502 to permit influx of air and other agents through the sealed BSC 500. Gas was evacuated from the sealed BSC using the port 506 on the top of the sealed BSC through fluid flow path 36.
# After sealing the BSC, the sealed area was humidified to 75% relative humidity as described in Example 1. Briefly, water was added to a humidifier/scrubber 22, and a blower 24 attached to the humidifier/scrubber 22 to allow air to pass by the water to generate humidified air. A hose 30 coming from the humidifier/scrubber which emitted humidified air was introduced into an opening 504 in the sealed BSC 500. A hose 36 coming out of the BSC was attached to the blower 22, thereby providing a closed-loop which circulated humidified air from the humidifier/scrubber 22 into the sealed BSC 500, out of the sealed BSC 500 and back to the humidifier/scrubber 22, and so on.
# During the humidification, chlorine dioxide gas was introduced into the BSC as described in Example 1. The BSC was exposed to 4000 ppm chlorine dioxide gas for one hour. […]
# [2] = test system: B. subtilis var. niger spores; assay: Decontamination of a mock BSC containing spore test strips with chlorine dioxide gas; strips cultured in tryptic soy broth
# Text: Test strips contaminated with 2.4×10^4 B. subtilis var. niger spores (Castle Biospore Biological Indicators, Castle, Inc., Rochester, N.Y.) were placed inside a mock BSC (FIG. 7) in various positions. The mock BSC was generated such that it was sealed from the outside environment, and included two openings to permit influx and efflux of air and other agents through the mock BSC.
# After sealing the mock BSC, the sealed mock BSC was humidified to 74-95% relative humidity using the following methods. Referring to FIGS. 2, 3 and 7, water was added to a humidifier/scrubber 22, and a blower 24 attached to the humidifier/scrubber 22 to allow air to pass by the water to generate humidified air. A hose 30 coming from the humidifier/scrubber which emitted humidified air was introduced into one of the openings 402 in the mock BSC 400. A hose 36 coming out of the mock BSC was attached to the blower 22, thereby providing a closed-loop which circulated humidified air from the humidifier/scrubber 22 into the mock BSC 400, out of the mock BSC 400 and back to the humidifier/scrubber 22, and so on. A hygrometer 404 in the mock BSC was used to monitor the relative humidity in the mock BSC.
# During the humidification, chlorine dioxide gas was introduced into the mock BSC as follows. A tank 12 containing a 4% chlorine/96% nitrogen gas mixture was turned on to permit the flow of gas to a CDG Saf-T-Chlor™ chlorine dioxide gas generator 14. This generator includes a sodium chlorite cartridge in fluid communication with the 4% Cl/96% N2 gas mixture. The resulting chlorine dioxide gas was allowed to flow into the hose 30 exiting the humidifier/scrubber (containing the humidified air), and was allowed to enter the mock BSC along with the humidified air. A chlorine dioxide monitor in the mock BSC allowed for a determination of the amount of chloride dioxide in the mock BSC. In some instances, the air circulation was increased by including a fan 406 in the mock BSC.
# Following exposure to chlorine dioxide, the tank 12 containing a 4% Cl/96% N2 gas mixture was turned off, to stop the flow and production of chlorine dioxide gas. To neutralize the chlorine dioxide gas, the following methods were used. A neutralizing solution that included 10% NaOH and 10% sodium thiosulfate hydrate (in water) was introduced into the humidifier/scrubber 22. Air from the mock BSC containing chlorine dioxide gas was circulated through the closed system described above, such that when the air containing chloride dioxide gas passed through the humidifier/scrubber 22, it was at least partially neutralized. […]
# [3] = test system: B. subtilis var. niger spores; assay: Decontamination of a BSC containing spore test strips using 2500 ppm ClO2 for 60 min; settings: 70-80% relative humidity
# Text: as §1
# After sealing the BSC, the sealed area was humidified to 70-80% relative humidity as described in Examples 1 and 2. During the humidification, chlorine dioxide gas was introduced into the BSC as described in Example 1. The BSC was exposed to 2500 ppm chlorine dioxide gas for one hour. The BSC circulates 15 s/5 min.
# Once the hour was up, the chlorine dioxide gas was neutralized as described above. The test strips were cultured as described in Example 1.
compound,measurement,setting,value
"[O][Cl+][O-] [ClO2, Chlorine dioxide]",Kill (number of test strips negative for spore growth),"[1]; 4000 ppm ClO2 for 60 min, Runs A-E (76.0-86.0 °F)",24/24 and 23/24
same,spore kill on test strips (in words),[1]; 4000 ppm chlorine dioxide gas for one hour,all spores were killed except on one test strip
same,Kill (number of test strips negative for spore growth),"[2]; Run A: 1500 ppm ClO2, exposure 90 min, relative humidity 95%, 69 °F, strips with 2.4×10^4 spores",16/16
same,Kill (number of test strips negative for spore growth),"[2]; Run B: 1500 ppm ClO2, exposure 90 min, relative humidity 85%, 69 °F",16/16
same,Kill (number of test strips negative for spore growth),"[2]; Run C: 2200 ppm ClO2, exposure 60 min, relative humidity 74%, 69 °F",17/17
same,Kill (number of test strips negative for spore growth),"[2]; Run D: 2000 ppm ClO2, exposure 60 min, relative humidity 75%, 68 °F",17/17
same,Kill (number of test strips negative for spore growth),"[3]; 2500 ppm ClO2 for 60 min, Runs A-D (70-74 °F)",24/24 and 23/23
same,spore kill on test strips (in words),[3]; 2500 ppm chlorine dioxide gas for one hour,all spores were killed
